The source of these data is ChEMBL document CHEMBL1201862, “PubChem BioAssay data set” (2004).

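How tested: cells in 96-well plates exposed to compound for 48 hours at five concentrations. Here, GI50 denotes the concentration required for 50% inhibition of growth.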 The source made the active and inactive calls. Rule as the data show it: active = GI50 up to about 1.1 µM and inactive = higher.

Among the test systems are SF-539; MDA-MB-435; SK-OV-3; HOP-62; HCT-116; LOX IMVI; OVCAR-5; T47D; Malme-3M; CAKI-1; OVCAR-3; OVCAR-8; MDA-MB-231; A549; BT-549; U-251; NCI/ADR-RES; HCC 2998; NCI-H23; SK-MEL-28.
Test in all cases: NCI-60 cell line screen, 48 h

As to `O=C(/C(Cl)=C/c1ccccc1)c1ccccc1`, the GI50 was 3.03 µM (inactive) with SF-539; 3.01 µM (inactive) in the test on MDA-MB-435; 19.7 µM (inactive) with SK-OV-3; 19.2 µM (inactive) in the test with HOP-62; 1.21 µM (inactive) in the test on HCT-116; 2.11 µM (inactive) with LOX IMVI. Moreover, the GI50 with OVCAR-5 was 4.42 µM (inactive); in the test on T47D, 4.07 µM (inactive); in the test on Malme-3M it was 2 µM (inactive); in the test on CAKI-1 it was 1.7 µM (inactive); with OVCAR-3, 2.21 µM (inactive); in the test on OVCAR-8, 2.84 µM (inactive). For the same compound, the GI50 is 5.6 µM (inactive) with MDA-MB-231; 10.9 µM (inactive) in the test with A549; 2.22 µM (inactive) in the test with BT-549; 4.27 µM (inactive) in the test on U-251; 3.55 µM (inactive) in the test with NCI/ADR-RES; 6.68 µM (inactive) in the test on HCC 2998. Also, the GI50 was 11.1 µM (inactive) with NCI-H23 and 2.29 µM (inactive) in the test with SK-MEL-28.
Turning to `Oc1cc(F)cc2cccnc12`, the GI50 was 1.34 µM (inactive) in the test on SF-539; 2.38 µM (inactive) in the test on MDA-MB-435; 4.45 µM (inactive) in the test on SK-OV-3; 2.56 µM (inactive) in the test with HOP-62; 1.89 µM (inactive) in the test with HCT-116; 0.362 µM (active) in the test on LOX IMVI. Further, the GI50 in the test with OVCAR-5 was 3.29 µM (inactive); in the test with T47D, 1.3 µM (inactive); in the test with Malme-3M, 0.628 µM (active); in the test with CAKI-1, 3.96 µM (inactive); in the test on OVCAR-3, 0.0975 µM (active); in the test with OVCAR-8, 0.324 µM (active). For the same compound, the GI50 is 1.54 µM (inactive) with MDA-MB-231; 1.02 µM (active) with A549; 0.968 µM (active) in the test with BT-549; 0.957 µM (active) with U-251; 0.281 µM (active) in the test on NCI/ADR-RES; 26.1 µM (inactive) in the test with HCC 2998. In addition, the GI50 was 1.09 µM (active) in the test on NCI-H23 and 48 µM (inactive) in the test with SK-MEL-28.
With `O=c1oc2ccc3ccccc3c2cc1-c1cn2ccsc2n1`, the GI50 was 20.7 µM (inactive) with SF-539; 22.4 µM (inactive) in the test on MDA-MB-435; > 100 µM (inactive) in the test on SK-OV-3; 34.5 µM (inactive) in the test on HOP-62; 16 µM (inactive) in the test on HCT-116; 15.8 µM (inactive) with LOX IMVI. Further, the GI50 in the test with OVCAR-5 was 24.9 µM (inactive); in the test with T47D, 13 µM (inactive); in the test on Malme-3M it was 21.2 µM (inactive); with CAKI-1, 23.8 µM (inactive); with OVCAR-3 it was 17.9 µM (inactive); in the test on OVCAR-8 it was 19.2 µM (inactive). Moreover, the GI50 in the test on MDA-MB-231 was 14.1 µM (inactive); in the test on A549, 49.9 µM (inactive); in the test on BT-549 it was 16.8 µM (inactive); in the test with U-251, 71.9 µM (inactive); in the test with NCI/ADR-RES, 29.1 µM (inactive); in the test with HCC 2998, 16.7 µM (inactive). Moreover, the results for the GI50 with NCI-H23 and with SK-MEL-28 were 25.2 µM (inactive) and 26 µM (inactive), respectively.
As to `CC1CCCC(C(=O)CC2CC(=O)NC(=O)C2)C1=O` (configuration not stated), the GI50 with SF-539, with MDA-MB-435, in the test with SK-OV-3, in the test on HOP-62, in the test on HCT-116 and with LOX IMVI was > 100 µM (inactive) in each case. Further, the GI50 in the test on OVCAR-5, in the test on T47D, in the test with Malme-3M, with CAKI-1, in the test on OVCAR-3 and with OVCAR-8 was > 100 µM (inactive) throughout. Further, the GI50 in the test on MDA-MB-231, in the test on A549, in the test with BT-549, with U-251, in the test on NCI/ADR-RES and with HCC 2998 was > 100 µM (inactive) each time. Further, the GI50 in the test with NCI-H23 and with SK-MEL-28 was > 100 µM (inactive) in each case.
For `O=C1CC(NC(=O)C(F)(F)F)c2c(Br)sc(N3CCNCC3)c21` (configuration not stated), the GI50 in the test on SF-539, with MDA-MB-435, in the test with SK-OV-3, in the test with HCT-116, in the test with LOX IMVI and in the test with OVCAR-5 was > 100 µM (inactive) each time. The GI50 in the test on T47D, with Malme-3M, in the test on CAKI-1, in the test with OVCAR-3, in the test with OVCAR-8 and with MDA-MB-231 was > 100 µM (inactive) throughout. The GI50 with A549, in the test with BT-549, in the test on U-251, with NCI/ADR-RES, in the test with HCC 2998 and in the test on NCI-H23 was > 100 µM (inactive) in each case. Also, the GI50 with SK-MEL-28 is > 100 µM (inactive).
`COC(=O)NNC(c1ccc(Cl)cc1)c1ccc(Cl)cc1`: the GI50 was 20.7 µM (inactive) with SF-539; 31.8 µM (inactive) in the test with MDA-MB-435; 23.7 µM (inactive) in the test with SK-OV-3; 15.7 µM (inactive) in the test with HCT-116; 16.4 µM (inactive) with LOX IMVI; 15.7 µM (inactive) with OVCAR-5. Moreover, the GI50 in the test with T47D is 19.9 µM (inactive); with Malme-3M, 20.6 µM (inactive); with CAKI-1, 16.1 µM (inactive); in the test with OVCAR-3, 15.2 µM (inactive); in the test with OVCAR-8, 19.1 µM (inactive); with MDA-MB-231, 12.2 µM (inactive). Further, the GI50 is 15.3 µM (inactive) in the test on A549; 16.1 µM (inactive) in the test with BT-549; 19.5 µM (inactive) in the test with U-251; 18.2 µM (inactive) in the test with NCI/ADR-RES; 13.5 µM (inactive) in the test on HCC 2998; 16.3 µM (inactive) with NCI-H23. For the same compound, in the test on SK-MEL-28, the GI50 was 18.7 µM (inactive).
With `O=C(CCCCCNC(=O)c1ccc(Cl)cc1)NO`, the GI50 was 5.55 µM (inactive) in the test on SF-539; 3.11 µM (inactive) in the test on MDA-MB-435; 6.38 µM (inactive) in the test on SK-OV-3; 2.56 µM (inactive) in the test with HCT-116; 4.76 µM (inactive) in the test on LOX IMVI; 1.64 µM (inactive) in the test on OVCAR-5. Besides, the GI50 in the test with T47D was 1.41 µM (inactive); with Malme-3M, 2.61 µM (inactive); with CAKI-1, 4.05 µM (inactive); in the test with OVCAR-3 it was 2.55 µM (inactive); in the test on OVCAR-8 it was 3.41 µM (inactive); in the test with MDA-MB-231, 3.61 µM (inactive). The GI50 in the test with A549 was 8.24 µM (inactive); with BT-549, 21.9 µM (inactive); in the test with U-251, 5.04 µM (inactive); in the test on NCI/ADR-RES it was 1.15 µM (inactive); in the test with HCC 2998, 4.5 µM (inactive); with NCI-H23 it was 5.97 µM (inactive). Moreover, in the test on SK-MEL-28, the GI50 is 5.32 µM (inactive).
`N#Cc1cccc2c1Sc1ccccc1N2`: the GI50 with SF-539 was 20.4 µM (inactive); in the test on MDA-MB-435, 27.3 µM (inactive); with SK-OV-3 it was 38.9 µM (inactive); in the test on HCT-116, 31.3 µM (inactive); in the test on LOX IMVI, 10.4 µM (inactive); with OVCAR-5, 26.7 µM (inactive). In addition, the GI50 in the test with T47D is 19.2 µM (inactive); with Malme-3M it was 41.6 µM (inactive); with CAKI-1, 32.2 µM (inactive); in the test with OVCAR-3 it was 57 µM (inactive); with OVCAR-8, 29.5 µM (inactive); with MDA-MB-231, 24.5 µM (inactive). Further, the GI50 in the test with A549 was 24.5 µM (inactive); with BT-549 it was 28.4 µM (inactive); in the test with U-251, 20 µM (inactive); in the test with NCI/ADR-RES, 31.3 µM (inactive); in the test on HCC 2998, 27 µM (inactive); with NCI-H23, 21.2 µM (inactive).
With `COC(=O)C(Cc1c(C2Nc3ccccc3C2CC(NC(=O)CNC(C)=O)C(=O)OC)[nH]c2ccccc12)NC(=O)CNC(C)=O` (configuration not stated), the GI50 with SF-539, in the test on MDA-MB-435, in the test with SK-OV-3, with HCT-116, with LOX IMVI and in the test on OVCAR-5 was > 100 µM (inactive) each time. Besides, the GI50 in the test with T47D, in the test with Malme-3M, in the test with CAKI-1, in the test on OVCAR-8, with MDA-MB-231 and with A549 was > 100 µM (inactive) in each case. The GI50 in the test with BT-549, in the test with U-251, with NCI/ADR-RES, in the test on HCC 2998, with NCI-H23 and with SK-MEL-28 was > 100 µM (inactive) throughout.
Turning to `CSc1ccc2c(c1)C(N1CCN(C)CC1)Cc1ccccc1S2` (configuration not stated), the GI50 is 6.11 µM (inactive) with SF-539; 2.32 µM (inactive) in the test with MDA-MB-435; 13.9 µM (inactive) in the test on SK-OV-3; 8.07 µM (inactive) in the test on HOP-62; 3.84 µM (inactive) in the test on HCT-116; 2.01 µM (inactive) in the test with LOX IMVI. Also, the GI50 with OVCAR-5 is 2.67 µM (inactive); with T47D, 8.04 µM (inactive); with Malme-3M, 1.71 µM (inactive); in the test with CAKI-1, 3.65 µM (inactive); in the test with OVCAR-3, 8.91 µM (inactive); in the test on OVCAR-8, 6.84 µM (inactive). Further, the GI50 in the test on MDA-MB-231 was 3.47 µM (inactive); in the test on A549, 7.18 µM (inactive); in the test with BT-549, 4.33 µM (inactive); with U-251, 4.43 µM (inactive); with NCI/ADR-RES, 5.56 µM (inactive); with HCC 2998, 11.1 µM (inactive). Also, the GI50 with NCI-H23 was 13.9 µM (inactive).
